Data set [1] concerns Canis familiaris. Nature of the data set: Suppression of renal vascular resistance in paced dog model of acute heart failure at 0.01 to 100 ug/kg/min dosed as dose escalation regime with duration of 30 mins for each dose. The class given is functional, organism-based. Conditions: Canis lupus familiaris.
Data set [2] relates to Canis familiaris. The data set is described as follows: Increase in urine sodium excretion in paced dog model of acute heart failure at 0.01 to 100 ug/kg/min dosed as dose escalation regime with duration of 30 mins for each dose. The class given is functional, organism-based. Conditions: Canis lupus familiaris.
Data set [3] concerns Rattus norvegicus. The data set is described as follows: Effect on heart rate in normal anesthetized rat at 0.1 to 10 ug/kg/min, iv. The class given is ADME, organism-based. Conditions: in vivo.
In data set [4] the test system is Canis familiaris. Nature of the data set: Suppression of pulmonary capillary wedge pressure in paced dog model of acute heart failure at 0.01 to 100 ug/kg/min dosed as dose escalation regime with duration of 30 mins for each dose. The class given is functional, organism-based. Conditions: Canis lupus familiaris.
Data set [5] deals with Rattus norvegicus. The data set is described as follows: Effect on vascular and cardiac function in normal anesthetized rat assessed as increase in slope of end systolic pressure volume relationship at 0.1 to 10 ug/kg/min, iv. Type of data set: functional, organism-based.
For data set [6], the system named is Canis familiaris. The data set is described as follows: Suppression of systemic vascular resistance in paced dog model of acute heart failure at 0.01 to 100 ug/kg/min dosed as dose escalation regime with duration of 30 mins for each dose. Type of data set: functional, organism-based. As to conditions: Canis lupus familiaris.
Data set [7] relates to Rattus norvegicus. The data set is described as follows: Effect on vascular and cardiac function in normal anesthetized rat assessed as reduction in vaso-constriction at 0.1 to 10 ug/kg/min, iv. The class given is functional, organism-based.
Data set [8] relates to Rattus norvegicus. Nature of the data set: Effect on vascular and cardiac function in normal anesthetized rat assessed as reduction in mean arterial pressure at 0.1 to 10 ug/kg/min, iv. The class given is functional, organism-based.
Data set [9] concerns Canis familiaris. The data set is described as follows: Increase in urine output in paced dog model of acute heart failure at 0.01 to 100 ug/kg/min dosed as dose escalation regime with duration of 30 mins for each dose. The class given is functional, organism-based. Conditions: Canis lupus familiaris.
For data set [10], the system named is Canis familiaris. Nature of the data set: Effect on renal function parameters in paced dog model of acute heart failure assessed as maintenance of urine potassium at 0.01 to 100 ug/kg/min dosed as dose escalation regime with duration of 30 mins for each dose. The class given is functional, organism-based. Conditions: Canis lupus familiaris.
Data set [11] relates to Canis familiaris. Nature of the data set: Increase in renal blood flow in paced dog model of acute heart failure at 0.01 to 100 ug/kg/min dosed as dose escalation regime with duration of 30 mins for each dose. As to conditions: Canis lupus familiaris. Type of data set: functional, organism-based.
Data set [12] relates to Canis familiaris. Nature of the data set: Suppression of mean arterial pressure in paced dog model of acute heart failure at 0.01 to 100 ug/kg/min dosed as dose escalation regime with duration of 30 mins for each dose. The class given is functional, organism-based. As to conditions: Canis lupus familiaris.
In data set [13] the test system is Canis familiaris. Nature of the data set: Effect on renal function parameters in paced dog model of acute heart failure assessed as maintenance of glomerular filtration rate at 0.01 to 100 ug/kg/min dosed as dose escalation regime with duration of 30 mins for each dose. The class given is functional, organism-based. As to conditions: Canis lupus familiaris.
The test system of data set [14] is Canis familiaris. The data set is described as follows: Preservation of cardiac output in paced dog model of acute heart failure at 0.01 to 100 ug/kg/min dosed as dose escalation regime with duration of 30 mins for each dose. Type of data set: functional, organism-based. As to conditions: Canis lupus familiaris.
Data set [15] has as its system Canis familiaris. Nature of the data set: Suppression of right arterial pressure in paced dog model of acute heart failure at 0.01 to 100 ug/kg/min dosed as dose escalation regime with duration of 30 mins for each dose. Conditions: Canis lupus familiaris. Type of data set: functional, organism-based.
In data set [16] the test system is Rattus norvegicus. The data set is described as follows: Effect on vascular and cardiac function in normal anesthetized rat assessed as preservation of pre-recruitable stroke work at 0.1 to 10 ug/kg/min, iv. Type of data set: functional, organism-based.
The subject of data set [17] is Rattus norvegicus. Nature of the data set: Effect on vascular and cardiac function in normal anesthetized rat assessed as preservation of stroke volume at 0.1 to 10 ug/kg/min, iv. Type of data set: functional, organism-based.

In ChEMBL document CHEMBL4476880, “beta-arrestin effectors and compositions and methods of use thereof” (2013) one finds Activity data, which are given here for one compound.

Activity calls are given as the source filed them. No cut-off for these calls is given here.

Turning to `CC[C@H](C)[C@H](NC(=O)[C@H](Cc1ccc(O)cc1)NC(=O)[C@@H](NC(=O)[C@H](CCCNC(=N)N)NC(=O)CNC)C(C)C)C(=O)N[C@@H](Cc1cnc[nH]1)C(=O)N1CCC[C@H]1C(=O)N[C@H](C)C(=O)O` [TRV-120027], the Activity result in the data set on Canis familiaris [1] was “Dose-dependent effect”; in the data set with Canis familiaris [2], “Dose-dependent effect”; in the data set with Rattus norvegicus [3], “Non-Toxic”; in the data set with Canis familiaris [4] it was “Dose-dependent effect”; in the data set with Canis familiaris [6] it was “Dose-dependent effect”; in the data set on Rattus norvegicus [8] it was “Dose-dependent effect”. The Activity entry in the data set on Canis familiaris [9], in the data set with Canis familiaris [10], with Canis familiaris [11], with Canis familiaris [12], in the data set with Canis familiaris [13] and in the data set with Canis familiaris [14] was “Dose-dependent effect” each time. Moreover, the Activity result with Canis familiaris [15] is “Dose-dependent effect”. The result in the data set with Rattus norvegicus [5], in the data set with Rattus norvegicus [7], in the data set with Rattus norvegicus [16] and with Rattus norvegicus [17] was Active.
